The values below come from patent EP2135611A1, “Pregn-5-en-20-yne-3,7,17-triol derivatives for use in therapy” (Hollis-Eden Pharmaceuticals Inc., priority 2001, dated 2002).

Test [1] concerns Distal colitis. Nature of the test: TNBS-induced distal colitis. Format: in vivo, male Sprague Dawley rats. Particulars: for frequency of moderate to severe lesions and their severity compared with negative control (vehicle) and reference control: based on occurrence at multiple colonic levels. The protocol:
In another protocol formula 1 compounds were used in a similar animal model. Groups of 10 male Sprague Dawley rats (250-300 grams) were fasted for 24 hours before 2,4,6-trinitrobenzene sulfonic acid (TNBS) or saline challenge. This model presents a severe challenge to the animal's immune system. On Day 0, the rats were lightly anesthetized and a catheter inserted rectally into the colon such that the tip was 8 cm proximal to the anus. Distal colitis was induced by intra-colonic instillation of 0.5 mL of an ethanolic solution of TNBS (60 mg/mL ethanol 50% in water). The test substance, 7-oxodehydroepiandrosterone 20 mg/mL in vehicle or vehicle control was administered by subcutaneous injection (0.1 mL/injection) once a day for 6 days, the first dose being given 30 minutes after TNBS challenge. Sulfasalazine (30 mg/mL in 2% Tween 80 in distilled water) or vehicle control was administered orally (PO) once a day (10mL/kg/day) for 7 days, the first two doses beginning 24 hours and 2 hours before DNBS challenge. Signs of diarrhea were recorded daily by examining the anal area. Animals were fasted for 24 hours prior to sacrifice on day 14 and the colon was removed and weighed. After gross observations of colonic tissues, 3 samples were taken from regions approximately 1, 3, and 8 cm proximal to the anus. If gross ulcers or inflammation were present, at least one sample was taken from the affected region. Before removal of the colon, signs of adhesion between the colon and other organs were recorded. […] Body weight, colon-to-body-weight ratio, and damage scores were assessed. Visible damage was scored on a 1-5 scale as follows: 0 = No damage; 1 = Localized hyperemia but no ulcers; 2= linear ulcers with no significant inflammation; 3 = Linear ulcers with inflammation at one site; 4 = Two or more sites of ulceration and/or inflammation; 5 = Two or more major sites of ulceration and inflammation or one major site of ulceration and inflammation extending more than 1 cm along the length of the colon. […]

Test [2] deals with Distal colitis. Nature of the test: DNBS-induced distal colitis (inflammatory bowel disease model). In kind it is in vivo, male Wistar rats. Particulars: for Adhesions between the colon and other organs / Colonic ulceration: observed at sacrifice day 7 or day 8, dosing as for each substance; for diarrhea: recorded daily, dosing as for each substance (AET: 2 mg); for Moderate acute inflammation, number of animals / Severe acute inflammation, number of animals: measured 7 days after DNBS challenge; for Moderate acute inflammation, number of animals / Severe acute inflammation, number of animals / Severe chronic inflammation, number of animals: groups of 10; for Severe chronic inflammation, number of animals: measured 14 days after DNBS challenge.

Test [3] relates to Experimental allergic encephalomyelitis (EAE). Nature of the test: Experimental allergic encephalomyelitis induced with PLP-139-151 peptide/CFA. Format: in vivo, Female SJL mice. Particulars: for onset of EAE: 3.0 mg s.c. daily for 33 days starting 7 days before peptide; for peak clinical score: reduced from 5.2 ± 0.6; for PLP-139-151 specific T cell proliferation responses: T cells from treated mice; for numbers of TNF-α producing cells in the CNS: treated mice. The protocol: Example 50. Treatment of neurodegenerative conditions. Experimental allergic encephalomyelitis (EAE), is demyelinating disease of the central nervous system with many pathological and clinical similarities with multiple sclerosis (MS). EAE is thus a recognized animal model for human autoimmune conditions such as MS. Formula 1 compounds 16α-fluoroandrost-5-ene-17-one, 3β,7β,17β,-trihydroxyandrost-5-ene and 16α-bromoepiandrosterone were tested for their capacity to delay the onset of EAE or to reduce its symptoms. Female SJL mice (5 animals per group) were immunized with 150 to 200 µg of PLP-139-151 peptide/CFA to induce EAE. Starting 7 days before injection of the peptide, the animals were given daily injections (s.c.) of the compounds (3.0 mg) in 0.1 mL vehicle, or vehicle alone for 33 days. The vehicle consisted of a suspension of the formula 1 compound in saline and carboxymethylcellulose. […] A lower dose (0.3 mg/mouse) or other routes (p.o.) of administration had less effect. […] These compounds limited the production of autoimmune Th-1 associated cytokines, which is consistent with restoration of a more normal Th-1/Th-2 immune balance and/or with reduction of inflammation in this model.

Test [4] has as its system delayed type hypersensitivity (DTH). The test is described as follows: Delayed type hypersensitivity to oxazolone (ear thickness). In kind it is in vivo, female BALB/cByJ mice. Particulars: for differential ear thickness: 24 hours after oxazolone challenge, vehicle alone 0.225 mm.
Setting [5] is: s.c. 20 mg/mL formulation once a day, first dose 30 minutes after DNBS, relative to vehicle-treated group / controls.
Where [6] appears, read: day 7 (acute inflammation) after DNBS challenge.
[7] abbreviates: day 14 after DNBS challenge (chronic inflammation).

Bounds are passed on as bounds.

Regarding `C[C@]12CC[C@H](O)CC1=CC(=O)[C@@H]1[C@@H]2CC[C@]2(C)C(=O)CC[C@@H]12` [7-oxodehydroepiandrosterone, 3β-hydroxyandrost-5-ene-7,17-dione], in the test on Distal colitis [1] (20 mg/mL, 0.1 mL s.c. once a day for 6 days), the “effect on inflammation (histopathological data)” value is given as “exacerbated the inflammation”. Besides, the “decrease of net colon-to-body weight ratio” value in the test on Distal colitis [2] (0.1 mL s.c. of 2 mg/mL formulation once a day for 6 days, first dose 30 minutes after DNBS, relative to vehicle-treated group) was 19%. For the same molecule, in the test on Distal colitis [2], the “Adhesions between the colon and other organs” value is on record as “absent in all three tested animals”; the Colonic ulceration is reported as 1/3; the diarrhea result is “All animals had diarrhea”. The “decrease of net colon-to-body weight ratio” value in the test with Distal colitis [2] (setting [5]) came to 14%.

Take `C[C@]12CCCCC1=CC[C@@H]1[C@@H]2CC[C@]2(C)C(=O)[C@H](F)C[C@@H]12` [16α-fluoroandrost-5-ene-17-one]: in test [3] (3.0 mg s.c. daily for 33 days), the “reduction of cumulative disease index” value is recorded as > 60%, the relapses entry was “prevented or significantly attenuated” and the peak clinical score was 2.8 ± 1.8. Besides, in test [3], the “onset of EAE” value was “significantly delayed”, the “PLP-139-151 specific T cell proliferation responses” value is “significantly reduced” and the “numbers of TNF-α producing cells in the CNS” value is “reduced numbers”.

Take `C[C@]12CC[C@H]3[C@@H]([C@@H](O)C=C4C[C@@H](O)CC[C@@]43C)[C@@H]1CC[C@@H]2O` [AET, 3β,7β,17β-trihydroxyandrost-5-ene]: the “enhancement of the DTH response” value in test [4] (s.c. 2 mg/day daily for 8 days, first dose 24 hours before sensitization, last dose 24 hours prior to challenge) is given as 23%. Also, in test [4] (s.c. 2 mg/day, administered 24 hours before challenge or at challenge), the “reduction in the DTH response” value is on record as 22-24%. Besides, in test [3] (3.0 mg s.c. daily for 33 days), the “reduction of cumulative disease index” value is reported as > 60%, the relapses result is on record as “prevented or significantly attenuated” and the peak clinical score is 2.8 ± 1.8. In addition, in test [3], the “onset of EAE” value is “significantly delayed”, the “PLP-139-151 specific T cell proliferation responses” value is “significantly reduced” and the “numbers of TNF-α producing cells in the CNS” value is listed as “reduced numbers”. Besides, the “animals with colonic ulcerations relative to untreated animals” value in the test on Distal colitis [2] (2 mg, N=9, pooled data from two studies) was determined as 33%. Further, the “animals showing ulcers (chronic ulceration)” value in the test with Distal colitis [2] (14 days after challenge, initiation of treatment delayed until 2 days after DNBS challenge) was 5 of 10. Moreover, the severe ulceration in the test on Distal colitis [2] (setting [6]) is 2 of 10. In addition, in the test on Distal colitis [2] (setting [7]), the severe ulceration is on record as 1 of 10. Moreover, the “net colon-to-body weight ratio, ulcers and diarrhea” value in the test with Distal colitis [2] (four subsequent studies) was “variably reduced”. Besides, in the test on Distal colitis [2], the “Moderate acute inflammation, number of animals” value (“Moderate acute inflammation” for short) is recorded as 6 animals; the “Severe acute inflammation, number of animals” value (from here on “Severe acute inflammation”) worked out at 4 animals; the “Severe chronic inflammation, number of animals” value (“Severe chronic inflammation” below) was 3 animals; the “Adhesions between the colon and other organs” value is recorded as “absent”. Besides, the diarrhea entry in the test with Distal colitis [2] is listed as “no diarrhea”. In the test on Distal colitis [2] (s.c. 0.2 mg/day for 5 or 6 days, first dose 30 minutes post-DNBS, relative to controls), the “decrease of net colon-to-body weight ratio” value worked out at 15%. Further, the “decrease of net colon-to-body weight ratio” value in the test on Distal colitis [2] (s.c. 2.0 mg/day for 5 or 6 days, first dose 30 minutes post-DNBS, relative to controls) was determined as 21%.

For `C[C@]12CC[C@H](O)C[C@@H]1CC[C@@H]1[C@@H]2CC[C@]2(C)C(=O)[C@H](Br)C[C@@H]12` [BrEA, 16α-bromo-3β-hydroxy-5α-androstane-17-one], the “effect on EAE” value in test [3] (3.0 mg s.c. daily for 33 days) is given as “not significant”. The “frequency of moderate to severe lesions and their severity compared with negative control (vehicle) and reference control” value in the test on Distal colitis [1] is “appeared to be similar”. In addition, the “decrease of net colon-to-body weight ratio” value in the test on Distal colitis [2] (s.c. 100 mg/mL formulation, relative to controls) is 21%.

As for `O=P1(N(CCCl)CCCl)NCCCO1` (centres unmarked) [cyclophosphamide, reference compound], the differential ear thickness in test [4] stood at 0.092 mm.

Regarding `C[C@]12CC[C@H](O)CC1=CC[C@@H]1[C@@H]2CC[C@]2(C)C(=O)CC[C@@H]12` [dehydroepiandrosterone, reference compound], the “frequency of moderate to severe lesions and their severity compared with negative control (vehicle) and reference control” value with Distal colitis [1] is given as “appeared to be similar”. In the test with Distal colitis [2] (setting [6]), the severe ulceration is 10 of 10. Further, the severe ulceration in the test with Distal colitis [2] (setting [7]) was 0 of 10. Further, in the test on Distal colitis [2], the “Moderate acute inflammation” value came out at 0 animals; the “Severe acute inflammation” value worked out at 10 animals; the “Severe chronic inflammation” value is given as 3 animals. Also, in the test on Distal colitis [2] (setting [5]), the “decrease of net colon-to-body weight ratio” value was determined as 3%.

On to `C[C@@H]1C[C@H]2[C@@H]3CCC4=CC(=O)C=C[C@]4(C)[C@@]3(F)[C@@H](O)C[C@]2(C)[C@@]1(O)C(=O)CO` [dexamethasone, reference compound], for which the differential ear thickness in test [4] came out at 0.144 mm.

Consider `O=C(O)c1cc(/N=N/c2ccc(S(=O)(=O)Nc3ccccn3)cc2)ccc1O` [sulfasalazine, reference compound], for which the “change in net colon-to-body weight (BW) ratio” value with Distal colitis [2] (PO 30 mg/mL, 10 mL/kg/day once a day for 7 days, relative to EE-1 treated group) is reported as -33%. The severe ulceration with Distal colitis [2] (setting [6]) is recorded as 3 of 10. In addition, in the test with Distal colitis [2] (setting [7]), the severe ulceration was 4 of 10. In the test with Distal colitis [2], the “Moderate acute inflammation” value turned out to be 6 animals; the “Severe acute inflammation” value is on record as 3 animals; the “Severe chronic inflammation” value was 2 animals; the “Adhesions between the colon and other organs” value is “no animals”. Also, in the test on Distal colitis [2], the Colonic ulceration result was “no animals” and the diarrhea result is given as “all animals”.
